Read-outs that look alike come from different tables or passages of the source.
What was measured:
[1] = tested on: HuH-7 CYP3A5 *3/*3 cell line; test: Midazolam and tacrolimus metabolism assay, parental HuH-7 cells
Method: (§1) To further characterize the cell lines, metabolism assays were performed to determine the effect of each genetic variant on metabolism. FIG. 11 illustrates a generalized representative assay. In this exemplary assay, a cell line is plated on a collagen I-coated plate (or in a well of a multi-well plate, etc.), layered with an extracellular-matrix-like hydrogel (e.g., […], Corning Life Sciences, Tewksbury, Mass.), induced with a suitable inducer (e.g., rifampin and phenytoin), then treated with the substrate MDZ. The MDZ substrate is converted by the metabolic processes of the cell line to 1-OH MDZ or 4-OH MDZ, which can be measured using, for example high performance liquid chromatography (HPLC). The assay can be altered depending on the substrate, cell line, genetic variant, and any other experimental conditions.
(§2) In this metabolism assay, all three exemplary cell lines and HuH-7 parental cell line were grown to confluency and then layered with […] (Corning Life Sciences, Tewksbury, Mass.). The cells were then induced with rifampicin and phenytoin for three days and treated with substrate Tac overnight. Cell culture media were collected after treatment and assayed for Tac disappearance using liquid chromatography-mass spectrometry.
(§3) HuH-7 and engineered cells were grown to confluence in 12 well BIOCOAT collagen I multi-well plates (Corning, Inc., Corning, N.Y.) for 3-4 weeks in DMEM. Cells were then overlaid with […] matrix (Corning, Inc., Corning, N.Y.) and then induced for four days by adding 100 μM phenytoin (USP) and 10 μM rifampicin to the cell culture, with media changed daily with inducers. On the fourth day, 500 μl of media was added to the cells with 100 μM phenytoin (USP) and 10 μM rifampicin with either equal volumes of methanol, as a negative control, or Midazolam (MDZ; Cerrilliant Corp., Round Rock, Tex.) diluted in methanol so that MDZ final concentration was 5 μM in cell culture media. Cells were incubated overnight, and media was collected and assayed for MDZ, 1-OH MDZ and 4-OH MDZ by high performance liquid chromatography.
(§4) To determine the metabolic function of the engineered cell lines, the cells were treated with MDZ at 1628 ng/mL (5 μM) in cell culture overnight. The following day, the cell culture media was harvested and analyzed by liquid chromatography/mass spectrometry (LC/MS) at the University of Minnesota Department of Experimental and Clinical Pharmacology to quantify the concentrations of MDZ and the metabolites 1-hydroxy-midazolam (1-OH MDZ) and 4-hydroxy-midazolam (4-OH MDZ).
(§5) Likewise, Tac was added to cells and analyzed by LC/MS at the University of Minnesota Department of Experimental and Clinical Pharmacology. […]

[2] = molecular target: CYP3A5 (Homo sapiens, UniProt P20815); conditions: FIG. 16 diagram; cited from earlier work
[3] = molecular target: CYP3A4 (Homo sapiens, UniProt P08684); conditions: FIG. 16 diagram; cited from earlier work
[4] = tested on: CYP3A5 *1/*3 pm cell line; test: Midazolam and tacrolimus metabolism assay, CYP3A5 *1/*3 pm cells
Method: as §1, §2, §3, §4, §5

[5] = tested on: CYP3A5 *1/*3 sd cell line; test: Midazolam and tacrolimus metabolism assay, CYP3A5 *1/*3 sd cells
Method: as §1, §2, §3, §4, §5

[6] = tested on: CYP3A5 *1/*1 dd cell line; test: Midazolam and tacrolimus metabolism assay, CYP3A5 *1/*1 dd cells
Method: as §1, §2
HuH-7 and engineered cells were grown to confluence in 12 well BIOCOAT collagen I multi-well plates (Corning, Inc., Corning, N.Y.) for 3-4 weeks in DMEM. […]
as §4, §5

[7] = kidney transplant patients, cited from earlier work

Chain of CYP3A4 (P08684 whole entry): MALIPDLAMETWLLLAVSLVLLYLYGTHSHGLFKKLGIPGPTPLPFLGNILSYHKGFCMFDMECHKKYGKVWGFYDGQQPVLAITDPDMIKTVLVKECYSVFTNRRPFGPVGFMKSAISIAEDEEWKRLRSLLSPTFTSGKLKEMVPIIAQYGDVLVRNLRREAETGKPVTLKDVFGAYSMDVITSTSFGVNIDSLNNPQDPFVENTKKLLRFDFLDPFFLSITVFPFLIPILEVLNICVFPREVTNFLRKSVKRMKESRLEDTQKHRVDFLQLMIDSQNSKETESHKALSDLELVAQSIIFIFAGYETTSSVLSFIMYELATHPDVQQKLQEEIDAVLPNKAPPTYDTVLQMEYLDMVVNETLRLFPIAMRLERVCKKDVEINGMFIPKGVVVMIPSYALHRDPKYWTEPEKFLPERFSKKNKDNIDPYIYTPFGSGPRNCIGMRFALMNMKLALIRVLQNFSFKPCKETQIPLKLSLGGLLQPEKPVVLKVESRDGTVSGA
Chain of CYP3A5 (P20815 whole entry): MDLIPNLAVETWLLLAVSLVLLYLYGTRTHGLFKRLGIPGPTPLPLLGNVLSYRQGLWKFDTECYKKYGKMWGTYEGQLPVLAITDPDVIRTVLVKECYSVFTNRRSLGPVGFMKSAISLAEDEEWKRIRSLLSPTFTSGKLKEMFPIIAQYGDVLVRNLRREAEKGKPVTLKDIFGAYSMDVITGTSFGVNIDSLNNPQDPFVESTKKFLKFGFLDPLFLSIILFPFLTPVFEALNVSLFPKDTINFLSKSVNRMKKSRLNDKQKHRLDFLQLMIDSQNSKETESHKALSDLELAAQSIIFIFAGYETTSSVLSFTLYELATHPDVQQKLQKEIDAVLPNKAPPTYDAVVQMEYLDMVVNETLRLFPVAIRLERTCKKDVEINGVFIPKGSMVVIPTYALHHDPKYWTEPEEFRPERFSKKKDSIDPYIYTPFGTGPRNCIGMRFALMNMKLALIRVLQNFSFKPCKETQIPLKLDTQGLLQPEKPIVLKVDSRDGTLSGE

## Cc1ccc(-c2c(-c3nn(C)c4ncnc(N5CC[C@H](N6CCCCC6)C5)c34)cnn2C)cc1 [CYP3CIDE]
[1]; 50 μM CYP3CIDE, HuH-7 cells, MDZ substrate, FIG. 19
  inhibition of 1-OH MDZ production: nearly completely inhibited
[1]; 50 μM CYP3CIDE, HuH-7 cells, MDZ substrate, FIG. 20
  inhibition of 4-OH MDZ production: inhibited
[2]
  inhibitory function on CYP3A5: mild inhibitory effect
[3]
  inhibitory function on CYP3A4: strong inhibitor

## Cc1ncc2n1-c1ccc(Cl)cc1C(c1ccccc1F)=NC2 [Midazolam, midazolam]
[1]; HuH-7 CYP3A5 *3/*3, start 5 μM (approximately 1629 ng/ml) MDZ, overnight, no CYP3CIDE, mean ± SD of six
  Midazolam (ng/mL) No CYP3CIDE: 1458 ± 62 ng/mL
[1]; HuH-7 CYP3A5 *3/*3, start 5 μM (approximately 1629 ng/ml) MDZ, overnight, with 50 μM CYP3CIDE, mean ± SD of six
  Midazolam (ng/mL) With CYP3CIDE: 1534 ± 32 ng/mL
[4]; CYP3A5 *1/*3 pm, FIG. 13, five biological replicates
  MDZ disappearance: more efficiently than the parental HuH-7 cell line
[4]; CYP3A5 *1/*3 pm, start 5 μM MDZ, overnight, no CYP3CIDE, mean ± SD of six
  Midazolam (ng/mL) No CYP3CIDE: 1130 ± 45 ng/mL
[4]; CYP3A5 *1/*3 pm, start 5 μM MDZ, overnight, with 50 μM CYP3CIDE, mean ± SD of six
  Midazolam (ng/mL) With CYP3CIDE: 1224 ± 18 ng/mL
[5]; CYP3A5 *1/*3 sd, FIG. 13, five biological replicates
  MDZ disappearance: more efficiently than the parental HuH-7 cell line
[5]; CYP3A5 *1/*3 sd, start 5 μM MDZ, overnight, no CYP3CIDE, mean ± SD of six
  Midazolam (ng/mL) No CYP3CIDE: 971 ± 110 ng/mL
[5]; CYP3A5 *1/*3 sd, start 5 μM MDZ, overnight, with 50 μM CYP3CIDE, mean ± SD of six
  Midazolam (ng/mL) With CYP3CIDE: 1241 ± 64 ng/mL
[6]; FIG. 13, five biological replicates
  MDZ disappearance: the most MDZ disappearance
[6]; start 5 μM MDZ, overnight, no CYP3CIDE, mean ± SD of six
  Midazolam (ng/mL) No CYP3CIDE: 724 ± 200 ng/mL
[6]; start 5 μM MDZ, overnight, with 50 μM CYP3CIDE, mean ± SD of six
  Midazolam (ng/mL) With CYP3CIDE: 1189 ± 90 ng/mL

## C=CC[C@@H]1/C=C(\C)C[C@H](C)C[C@H](OC)[C@H]2O[C@@](O)(C(=O)C(=O)N3CCCC[C@H]3C(=O)O[C@H](/C(C)=C/[C@@H]3CC[C@@H](O)[C@H](OC)C3)[C@H](C)[C@@H](O)CC1=O)[C@H](C)C[C@@H]2OC [Tac, tacrolimus]
[4]; human, 13 ng/mL
  Tac disappearance: more efficiently than the parental HuH-7 cell line
[5]; human, 13 ng/mL
  Tac disappearance: more efficiently than the parental HuH-7 cell line
[7]; one CYP3A5 *1 allele present
  reduction in log-transformed dose-normalized troughs: 36%
[7]; two CYP3A5 *1 alleles present
  reduction in log-transformed dose-normalized troughs: 59%

From US20200032269A1, “GENETICALLY MODIFIED CELL LINES FOR METABOLIC STUDIES” (Hennepin Healthcare Research Institute, priority 2017, published 2020)
